Assay [1] deals with Fusarium oxysporum. Description: Antifungal activity against Fusarium oxysporum assessed as inhibition of mycelia growth at 600 ppm after 1 week by filter paper method relative to control. In kind it is functional. As to conditions: 168 h, read-out: GI.
Assay [2] relates to Fusarium oxysporum. Description: Antifungal activity against Fusarium oxysporum assessed as inhibition of mycelia growth at 200 ppm after 1 week by filter paper method relative to control. The conditions noted are these: 168 h, read-out: GI. In kind it is functional.
In assay [3] the test system is Fusarium oxysporum. The assay is described as follows: Antifungal activity against Fusarium oxysporum assessed as inhibition of mycelia growth at 1000 ppm after 1 week by filter paper method relative to control. As to conditions: 168 h, read-out: GI. The format is functional.
For assay [4], the system named is Fusarium oxysporum. Description: Antifungal activity against Fusarium oxysporum assessed as inhibition of mycelia growth at 800 ppm after 1 week by filter paper method relative to control. As to conditions: 168 h, read-out: GI. In kind it is functional.
Assay [5] has as its system Fusarium oxysporum. The assay is described as follows: Antifungal activity against Fusarium oxysporum assessed as inhibition of mycelia growth at 400 ppm after 1 week by filter paper method relative to control. In kind it is functional. As to conditions: 168 h, read-out: GI.
Another assay has as its system HeLa. Description: Cytotoxicity against human HeLa cells measured at 48 hrs by MTT assay. The format is functional, cell-based.

SMILES strings stand for the structures.

In the case of `C#CCO[C@H]1O[C@@H]2O[C@@]3(C)CC[C@H]4[C@H](C)CC[C@@H]([C@H]1C)[C@@]24OO3`, the inhibition of growth at 600 ppm in the assay on Fusarium oxysporum [1] came out at 68.8%. The inhibition of growth at 200 ppm with Fusarium oxysporum [2] worked out at 64.8%. For the same molecule, in the assay with Fusarium oxysporum [3], the inhibition of growth at 1000 ppm came to 72%. Further, in the assay on Fusarium oxysporum [4], the inhibition of growth at 800 ppm turned out to be 70.2%. In addition, in the assay with Fusarium oxysporum [5], the inhibition of growth at 400 ppm was 66.4%.
Consider `C#CCCO[C@H]1O[C@@H]2O[C@@]3(C)CC[C@H]4[C@H](C)CC[C@@H]([C@H]1C)[C@@]24OO3`, for which the inhibition of growth at 600 ppm in the assay on Fusarium oxysporum [1] was found to be 75.4%. Moreover, in the assay with Fusarium oxysporum [2], the inhibition of growth at 200 ppm worked out at 70%. For the same molecule, the inhibition of growth at 1000 ppm in the assay with Fusarium oxysporum [3] was 77.6%. In the assay with Fusarium oxysporum [4], the inhibition of growth at 800 ppm amounted to 76.8%. In addition, in the assay with Fusarium oxysporum [5], the inhibition of growth at 400 ppm is 73.2%.
The corresponding values for `C[C@H]1[C@@H](OCCC#Cc2ccc(-c3cccc(C(F)(F)F)c3)cc2)O[C@@H]2O[C@@]3(C)CC[C@H]4[C@H](C)CC[C@@H]1[C@@]24OO3` are 67.6%, 65.6%, 70.2%, 69% and 66.5%.
With `C[C@H]1[C@@H](OCC#Cc2ccccc2F)O[C@@H]2O[C@@]3(C)CC[C@H]4[C@H](C)CC[C@@H]1[C@@]24OO3`, the inhibition of growth at 600 ppm in the assay on Fusarium oxysporum [1] is 55.2%. The inhibition of growth at 200 ppm in the assay on Fusarium oxysporum [2] stood at 53.6%. Further, in the assay on HeLa, the IC50 worked out at 139 µM. The inhibition of growth at 1000 ppm with Fusarium oxysporum [3] is 57.6%. Also, the inhibition of growth at 800 ppm in the assay with Fusarium oxysporum [4] turned out to be 56.8%. Further, the inhibition of growth at 400 ppm in the assay with Fusarium oxysporum [5] is 54.2%.
Consider `C[C@H]1[C@@H](OCCC#Cc2cccc(-c3ccc(F)cc3)c2)O[C@@H]2O[C@@]3(C)CC[C@H]4[C@H](C)CC[C@@H]1[C@@]24OO3`, for which the inhibition of growth at 600 ppm in the assay with Fusarium oxysporum [1] was 66.4%. The inhibition of growth at 200 ppm with Fusarium oxysporum [2] turned out to be 64%. The same molecule yielded an IC50 in the assay on HeLa of 112 µM. Moreover, in the assay on Fusarium oxysporum [3], the inhibition of growth at 1000 ppm stood at 69.8%. Moreover, the inhibition of growth at 800 ppm in the assay with Fusarium oxysporum [4] was found to be 68%. In addition, the inhibition of growth at 400 ppm in the assay with Fusarium oxysporum [5] was found to be 65.2%.
Take `C[C@H]1[C@@H](OCCC#Cc2ccc(-c3ccc(F)cc3)cc2)O[C@@H]2O[C@@]3(C)CC[C@H]4[C@H](C)CC[C@@H]1[C@@]24OO3`: in the assay on Fusarium oxysporum [1], the inhibition of growth at 600 ppm came to 70.2%. In the assay on Fusarium oxysporum [2], the inhibition of growth at 200 ppm stood at 67%. This molecule came in with an IC50 with HeLa of 13.1 µM. In addition, the inhibition of growth at 1000 ppm with Fusarium oxysporum [3] worked out at 72.8%. Besides, the inhibition of growth at 800 ppm with Fusarium oxysporum [4] was determined as 71%. Further, the inhibition of growth at 400 ppm in the assay with Fusarium oxysporum [5] worked out at 67.9%.
Consider `C[C@H]1[C@@H](OCC#Cc2ccc(F)nc2)O[C@@H]2O[C@@]3(C)CC[C@H]4[C@H](C)CC[C@@H]1[C@@]24OO3`, for which the inhibition of growth at 600 ppm in the assay on Fusarium oxysporum [1] was 61%. Further, the inhibition of growth at 200 ppm with Fusarium oxysporum [2] was determined as 56.4%. In addition, the inhibition of growth at 1000 ppm with Fusarium oxysporum [3] stood at 63.8%. The inhibition of growth at 800 ppm in the assay on Fusarium oxysporum [4] worked out at 62.5%. Moreover, in the assay on Fusarium oxysporum [5], the inhibition of growth at 400 ppm is 58.4%.
Regarding `C[C@@H]1CC[C@H]2[C@@H](C)C(=O)O[C@@H]3O[C@@]4(C)CC[C@@H]1[C@]32OO4` [ARTEMISININ], the inhibition of growth at 600 ppm in the assay with Fusarium oxysporum [1] was determined as 76%. The inhibition of growth at 200 ppm in the assay with Fusarium oxysporum [2] stood at 72%. This molecule also came in with an IC50 in the assay with HeLa of 493 µM. Further, the inhibition of growth at 1000 ppm in the assay on Fusarium oxysporum [3] was 78.5%. For the same molecule, in the assay with Fusarium oxysporum [4], the inhibition of growth at 800 ppm came to 77.2%. Also, the inhibition of growth at 400 ppm with Fusarium oxysporum [5] stood at 75.5%.
For `C[C@H]1[C@@H](OCCC#Cc2ccc(F)nc2)O[C@@H]2O[C@@]3(C)CC[C@H]4[C@H](C)CC[C@@H]1[C@@]24OO3`, the inhibition of growth at 600 ppm with Fusarium oxysporum [1] was 65%. The inhibition of growth at 200 ppm with Fusarium oxysporum [2] was found to be 62.4%. The IC50 with HeLa is 20.9 µM. The inhibition of growth at 1000 ppm with Fusarium oxysporum [3] was 67.8%. For the same molecule, in the assay with Fusarium oxysporum [4], the inhibition of growth at 800 ppm stood at 66.4%. In the assay with Fusarium oxysporum [5], the inhibition of growth at 400 ppm turned out to be 63.9%.
Regarding `C[C@H]1[C@@H](OCC#Cc2ccc(F)cc2)O[C@@H]2O[C@@]3(C)CC[C@H]4[C@H](C)CC[C@@H]1[C@@]24OO3`, the inhibition of growth at 600 ppm in the assay with Fusarium oxysporum [1] stood at 56%. Besides, the inhibition of growth at 200 ppm in the assay on Fusarium oxysporum [2] worked out at 53.5%. The molecule also gave an IC50 in the assay on HeLa of 26.3 µM. Besides, the inhibition of growth at 1000 ppm in the assay on Fusarium oxysporum [3] amounted to 59%. Further, in the assay on Fusarium oxysporum [4], the inhibition of growth at 800 ppm is 57.6%. In addition, the inhibition of growth at 400 ppm with Fusarium oxysporum [5] came out at 54.4%.
Take `C[C@H]1[C@@H](OCCC#Cc2ccc(-c3ccc(F)cc3)s2)O[C@@H]2O[C@@]3(C)CC[C@H]4[C@H](C)CC[C@@H]1[C@@]24OO3`: the inhibition of growth at 600 ppm with Fusarium oxysporum [1] stood at 68%. The inhibition of growth at 200 ppm with Fusarium oxysporum [2] worked out at 66.4%. In the assay with HeLa, this molecule returned an IC50 of 36.6 µM. Besides, in the assay on Fusarium oxysporum [3], the inhibition of growth at 1000 ppm came to 71%. The inhibition of growth at 800 ppm in the assay on Fusarium oxysporum [4] worked out at 69.9%. Besides, the inhibition of growth at 400 ppm with Fusarium oxysporum [5] was 66.9%.
In the case of `C[C@H]1[C@@H](OCC#Cc2cccc(F)c2)O[C@@H]2O[C@@]3(C)CC[C@H]4[C@H](C)CC[C@@H]1[C@@]24OO3`, in the assay on Fusarium oxysporum [1], the inhibition of growth at 600 ppm came to 62%. Also, the inhibition of growth at 200 ppm with Fusarium oxysporum [2] came out at 60%. In addition, the IC50 in the assay on HeLa was found to be 14 µM. Also, in the assay on Fusarium oxysporum [3], the inhibition of growth at 1000 ppm was 65.2%. The inhibition of growth at 800 ppm in the assay with Fusarium oxysporum [4] is 64%. For the same molecule, the inhibition of growth at 400 ppm with Fusarium oxysporum [5] was 61.8%.
